Structures can show the parent of a compound that is named as a salt. Where two headings read alike, the source gives them in different places.
Experiments:
[1] = tested on: 60 cancer cell lines (NCI 60 cancer cell line series); assay: NCI-DTP in vitro cancer screen, sulforhodamine B (SRB) growth inhibition, 48 hour exposure; type: cell-based, human; set-up: key to sensitivity class Ovarian OVCAR-8 CL6005 / sensitivity class Ovarian SK-OV-3 CL6011 / sensitivity class Prostate DU-145 CL11003 / sensitivity class NSCLC NCI-H522 CL1003 / sensitivity class Ovarian IGROV1 CL6010 / sensitivity class Ovarian OVCAR-4 CL6002 / sensitivity class Prostate PC-3(I) CL11001 / sensitivity class Renal A498 CL9013 / sensitivity class Renal SN12C CL9008: sensitivity class: 1 = Low, 2 = Medium, 3 = High
How it was run: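 Values come from the NCI-DTP screen database: -log GI50, the concentration giving 50% growth inhibition, derived from SRB cell-mass dose-response curves. Each line seeded at its own density, treated day 1 at five ten-fold-spaced doses in duplicate wells, stained after 48 h.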

[2] = tested on: 60 cancer cell lines (NCI 60 cancer cell line series); conditions: cited from earlier work

CC[C@]1(O)C[C@H]2CN(CCc3c([nH]c4ccccc34)[C@@](C(=O)OC)(c3cc4c(cc3OC)N(C=O)[C@H]3[C@@](O)(C(=O)OC)[C@H](OC(C)=O)[C@]5(CC)C=CCN6CC[C@]43[C@@H]65)C2)C1 [Vincristine sulfate]
classification of cell line as Low(1), Medium(2) or High(3) sensitivity to compound ([1]; Breast BT-549 (CL5013)): 2
classification of cell line as Low(1), Medium(2) or High(3) sensitivity to compound ([1]; Breast HS-578T CL5006): 2
classification of cell line as Low(1), Medium(2) or High(3) sensitivity to compound ([1]; Breast MCF7(I) (CL5001)): 2
classification of cell line as Low(1), Medium(2) or High(3) sensitivity to compound ([1]; Breast MCF7/ADRr (CL5002)): 2
classification of cell line as Low(1), Medium(2) or High(3) sensitivity to compound ([1]; Breast MDA-MB-231 CL5005): 2
classification of cell line as Low(1), Medium(2) or High(3) sensitivity to compound ([1]; Breast MDA-MB-435 (CL5011)): 2
classification of cell line as Low(1), Medium(2) or High(3) sensitivity to compound ([1]; Breast MDA-N CL5012): 1
classification of cell line as Low(1), Medium(2) or High(3) sensitivity to compound ([1]; Breast T-47D (CL5014)): 2
classification of cell line as Low(1), Medium(2) or High(3) sensitivity to compound ([1]; CNS SF-268 CL12014): 3
classification of cell line as Low(1), Medium(2) or High(3) sensitivity to compound ([1]; CNS SF-295 CL12015): 3
classification of cell line as Low(1), Medium(2) or High(3) sensitivity to compound ([1]; CNS SF-539 CL12016): 3
classification of cell line as Low(1), Medium(2) or High(3) sensitivity to compound ([1]; CNS SNB-19 (CL12002)): 2
classification of cell line as Low(1), Medium(2) or High(3) sensitivity to compound ([1]; CNS SNB-75(I) CL12005): 2
classification of cell line as Low(1), Medium(2) or High(3) sensitivity to compound ([1]; CNS U251(I) CL12009): 2
classification of cell line as Low(1), Medium(2) or High(3) sensitivity to compound ([1]; Colon COLO-250 CL4010): 2
classification of cell line as Low(1), Medium(2) or High(3) sensitivity to compound ([1]; Colon HCC-2998 (CL4002)): 2
classification of cell line as Low(1), Medium(2) or High(3) sensitivity to compound ([1]; Colon HCT-15 CL4015): 2
classification of cell line as Low(1), Medium(2) or High(3) sensitivity to compound ([1]; Colon HCT-116 (CL4003)): 2
classification of cell line as Low(1), Medium(2) or High(3) sensitivity to compound ([1]; Colon HT29(I) CL4001): 3
classification of cell line as Low(1), Medium(2) or High(3) sensitivity to compound ([1]; Colon KM12 (CL4017)): 3
classification of cell line as Low(1), Medium(2) or High(3) sensitivity to compound ([1]; Colon SW-620 (CL4009)): 3
classification of cell line as Low(1), Medium(2) or High(3) sensitivity to compound ([1]; Leukemia CCRF-CEM(I) (CL7003)): 3
classification of cell line as Low(1), Medium(2) or High(3) sensitivity to compound ([1]; Leukemia HL-60(I) (CL7008)): 3
classification of cell line as Low(1), Medium(2) or High(3) sensitivity to compound ([1]; Leukemia K562(I) CL7005): 3
classification of cell line as Low(1), Medium(2) or High(3) sensitivity to compound ([1]; Leukemia MOLT-4 (CL7006)): 3
classification of cell line as Low(1), Medium(2) or High(3) sensitivity to compound ([1]; Leukemia RPMI-8226(I) (CL7010)): 3
classification of cell line as Low(1), Medium(2) or High(3) sensitivity to compound ([1]; Leukemia SR CL7019): 3
classification of cell line as Low(1), Medium(2) or High(3) sensitivity to compound ([1]; Melanoma LOX IMVI CL10001): 3
classification of cell line as Low(1), Medium(2) or High(3) sensitivity to compound ([1]; Melanoma M14 (CL10014)): 2
classification of cell line as Low(1), Medium(2) or High(3) sensitivity to compound ([1]; Melanoma MALME-3M CL10002): 2
classification of cell line as Low(1), Medium(2) or High(3) sensitivity to compound ([1]; Melanoma SK-MEL-2 (CL10005)): 2
classification of cell line as Low(1), Medium(2) or High(3) sensitivity to compound ([1]; Melanoma SK-MEL-5 (CL10007)): 3
classification of cell line as Low(1), Medium(2) or High(3) sensitivity to compound ([1]; Melanoma SK-MEL-28 (CL10008)): 1
classification of cell line as Low(1), Medium(2) or High(3) sensitivity to compound ([1]; Melanoma UACC-62 (CL10020)): 2
classification of cell line as Low(1), Medium(2) or High(3) sensitivity to compound ([1]; Melanoma UACC-257 (CL10021)): 2
classification of cell line as Low(1), Medium(2) or High(3) sensitivity to compound ([1]; NSCLC A549/ATCC (CL1004)): 2
classification of cell line as Low(1), Medium(2) or High(3) sensitivity to compound ([1]; NSCLC EKVX (CL1008)): 1
classification of cell line as Low(1), Medium(2) or High(3) sensitivity to compound ([1]; NSCLC HOP-62 (CL1026)): 2
classification of cell line as Low(1), Medium(2) or High(3) sensitivity to compound ([1]; NSCLC HOP-92 (CL1029)): 2
classification of cell line as Low(1), Medium(2) or High(3) sensitivity to compound ([1]; NSCLC NCI-H226 CL1013): 2
sensitivity class NSCLC NCI-H23(I) CL1001 ([1]; cell line NSCLC NCI-H23(I), CL1001): 3
sensitivity class NSCLC NCI-H332M CL1017 ([1]; cell line NSCLC NCI-H332M, CL1017): 2
sensitivity class NSCLC NCI-H460 CL1021 ([1]; cell line NSCLC NCI-H460, CL1021): 3
sensitivity class NSCLC NCI-H522 CL1003 ([1]; cell line NSCLC NCI-H522, CL1003): 3
sensitivity class Ovarian IGROV1 CL6010 ([1]; cell line Ovarian IGROV1, CL6010): 3
sensitivity class Ovarian OVCAR-3 CL6001 ([1]; cell line Ovarian OVCAR-3, CL6001): 3
sensitivity class Ovarian OVCAR-4 CL6002 ([1]; cell line Ovarian OVCAR-4, CL6002): 2
sensitivity class Ovarian OVCAR-5 CL6003 ([1]; cell line Ovarian OVCAR-5, CL6003): 1
sensitivity class Ovarian OVCAR-8 CL6005 ([1]; cell line Ovarian OVCAR-8, CL6005): 3
sensitivity class Ovarian SK-OV-3 CL6011 ([1]; cell line Ovarian SK-OV-3, CL6011): 2
sensitivity class Prostate DU-145 CL11003 ([1]; cell line Prostate DU-145, CL11003): 2
sensitivity class Prostate PC-3(I) CL11001 ([1]; cell line Prostate PC-3(I), CL11001): 2
sensitivity class Renal 786-O CL9018 ([1]; cell line Renal 786-O, CL9018): 2
sensitivity class Renal A498 CL9013 ([1]; cell line Renal A498, CL9013): 3
sensitivity class Renal ACHN CL9023 ([1]; cell line Renal ACHN, CL9023): 2
sensitivity class Renal CAKI-1 CL9015 ([1]; cell line Renal CAKI-1, CL9015): 2
sensitivity class Renal RXF-393 CL9016 ([1]; cell line Renal RXF-393, CL9016): 2
sensitivity class Renal SN12C CL9008 ([1]; cell line Renal SN12C, CL9008): 2
sensitivity class Renal TK10 CL9024 ([1]; cell line Renal TK10, CL9024): 1
sensitivity class Renal UO-31 CL9004 ([1]; cell line Renal UO-31, CL9004): 1
-Log (GI50) ([2]; Breast BT-549 (CL5013)): 5.9
-Log (GI50) ([2]; Breast HS-578T CL5006): 6.5
-Log (GI50) ([2]; Breast MCF7(I) (CL5001)): 6.9
-Log (GI50) ([2]; Breast MCF7/ADRr (CL5002)): 6.1
-Log (GI50) ([2]; Breast MDA-MB-231 CL5005): 6.6
-Log (GI50) ([2]; Breast MDA-MB-435 (CL5011)): 6.7
-Log (GI50) ([2]; Breast MDA-N CL5012): 6.6
-Log (GI50) ([2]; Breast T-47D (CL5014)): 3.8
-Log (GI50) ([2]; CNS SF-268 CL12014): 6.8
-Log (GI50) ([2]; CNS SF-295 CL12015): 7.0
-Log (GI50) ([2]; CNS SF-539 CL12016): 7.0
-Log (GI50) ([2]; CNS SNB-19 (CL12002)): 6.9
-Log (GI50) ([2]; CNS SNB-75(I) CL12005): 6.3
-Log (GI50) ([2]; CNS U251(I) CL12009): 6.9
-Log (GI50) ([2]; Colon COLO-250 CL4010): 6.9
-Log (GI50) ([2]; Colon HCC-2998 (CL4002)): 6.9
-Log (GI50) ([2]; Colon HCT-15 CL4015): 6.9
-Log (GI50) ([2]; Colon HCT-116 (CL4003)): 6.9
-Log (GI50) ([2]; Colon HT29(I) CL4001): 7.0
-Log (GI50) ([2]; Colon KM12 (CL4017)): 6.9
-Log (GI50) ([2]; Colon SW-620 (CL4009)): 7.0
-Log (GI50) ([2]; Leukemia CCRF-CEM(I) (CL7003)): 7.0
-Log (GI50) ([2]; Leukemia HL-60(I) (CL7008)): 7.0
-Log (GI50) ([2]; Leukemia K562(I) CL7005): 7.0
-Log (GI50) ([2]; Leukemia MOLT-4 (CL7006)): 6.9
-Log (GI50) ([2]; Leukemia RPMI-8226(I) (CL7010)): 6.9
-Log (GI50) ([2]; Leukemia SR CL7019): 7.0
-Log (GI50) ([2]; Melanoma LOX IMVI CL10001): 7.0
-Log (GI50) ([2]; Melanoma M14 (CL10014)): 6.9
-Log (GI50) ([2]; Melanoma MALME-3M CL10002): 6.6
-Log (GI50) ([2]; Melanoma SK-MEL-2 (CL10005)): 6.9
-Log (GI50) ([2]; Melanoma SK-MEL-5 (CL10007)): 7.0
-Log (GI50) ([2]; Melanoma SK-MEL-28 (CL10008)): 6.0
-Log (GI50) ([2]; Melanoma UACC-62 (CL10020)): 6.9
-Log (GI50) ([2]; Melanoma UACC-257 (CL10021)): 6.8
-Log (GI50) ([2]; NCSLC NCI-H522 CL1003): 6.9
-Log (GI50) ([2]; NSCLC A549/ATCC (CL1004)): 6.9
-Log (GI50) ([2]; NSCLC EKVX (CL1008)): 5.7
-Log (GI50) ([2]; NSCLC HOP-62 (CL1026)): 6.8
-Log (GI50) ([2]; NSCLC HOP-92 (CL1029)): 6.9
-Log (GI50) ([2]; NSCLC NCI-H23(I) CL1001): 7.0
-Log (GI50) ([2]; NSCLC NCI-H226 CL1013): 6.9
-Log (GI50) ([2]; NSCLC NCI-H332M CL1017): 6.9
-Log (GI50) ([2]; NSCLC NCI-H460 CL1021): 7.0
-Log (GI50) ([2]; Ovarian IGROV1 CL6010): 7.0
-Log (GI50) ([2]; Ovarian OVCAR-3 CL6001): 7.0
-Log (GI50) ([2]; Ovarian OVCAR-4 CL6002): 6.3
-Log (GI50) ([2]; Ovarian OVCAR-5 CL6003): 4.7
-Log (GI50) ([2]; Ovarian OVCAR-8 CL6005): 7.0
-Log (GI50) ([2]; Ovarian SK-OV-3 CL6011): 6.6
-Log (GI50) ([2]; Prostate DU-145 CL11003): 6.4
-Log (GI50) ([2]; Prostate PC-3(I) CL11001): 6.6
-Log (GI50) ([2]; Renal 786-O CL9018): 6.9
-Log (GI50) ([2]; Renal A498 CL9013): 7.0
-Log (GI50) ([2]; Renal ACHN CL9023): 6.8
-Log (GI50) ([2]; Renal CAKI-1 CL9015): 6.9
-Log (GI50) ([2]; Renal RXF-393 CL9016): 6.9
-Log (GI50) ([2]; Renal SN12C CL9008): 6.9
-Log (GI50) ([2]; Renal TK10 CL9024): 5.7
-Log (GI50) ([2]; Renal UO-31 CL9004): 5.7

Reference: patent US20020051978A1, “Methods and compositions for the identification, assessment, prevention and therapy of human cancers” (priority 2000, published 2002)
